Test results reported in a melting point compilation (Tetko et al.; mined from patent text by program, amines drawn as free bases though some values may be those of a salt).

Structure (SMILES) | melting point [°C]
CC(CO)Oc1cc(-n2nc3n(c2=O)CCCC3)c(Cl)cc1Cl (configuration not stated) | 54 to 57
CNCc1nnc2n1-c1ccc(Cl)cc1C(c1ccccc1)=NC2 | 152 to 156
O=C(Cc1ccccc1)Nc1ccc(-n2nc(C3CC3)cc2C2CC2)cc1 | 133 to 138
O=c1ccc2c(Br)nccc2[nH]1 | 272 to 274
CCc1c(Cc2[nH]c(Cc3[nH]c(C(=O)OCc4ccccc4)c(C)c3CC)c(CC)c2CC)[nH]c(C(=O)OCc2ccccc2)c1C | 211
O=S(CCc1ccccc1)c1nc2cnccc2[nH]1 (configuration not stated) | 171 to 174
CSc1[nH]c2cccc3c2c1CC1C3C=C(C)CN1C (configuration not stated) | 148 to 150
CCNc1cncc(S(=O)(=O)N(CC)CC)c1 | 58 to 60
COc1ccc(F)cc1C(C)(C)CC(O)(Cc1cccc(C(N)=O)c1)C(F)(F)F (configuration not stated) | 70 to 75
Fc1cc(CC2(Cc3ccnc(F)c3)c3ccccc3-c3ncncc32)ccn1 | 171 to 174
Cc1nn(C2=NNN(S)C2N)c2c1CCCC2 (configuration not stated) | 201 to 202
O=C1Nc2ccc3cn[nH]c3c2C1=O | > 300
CCCn1c(=O)c2[nH]c(-c3ccc(OCC(=O)O)cc3)nc2n(CCC)c1=O | 214 to 216
CC(=O)N1CCN=C1Nc1cc(C)nn1C(C)C | 145 to 147
CCSc1c(C=NOC)c(=O)n(C)c(=O)n1C | 74 to 75
Cc1ccc2c(c1)C=Cc1sc(C)nc1C2c1cn(C)c(=O)[nH]c1=S (configuration not stated) | 235 to 237
COc1ccc2[nH]c3c(C(=O)Nc4ccc(CCCCN(C)CCc5ccc(OC)c(OC)c5)cc4)cccc3c(=O)c2c1 | 155
CCCC(=O)c1cnc2c(N)cccc2c1Nc1ccccc1C | 108 to 110
O=C(O)C(O)c1cccc(COc2ccccc2Cl)c1COc1ccccc1Cl (configuration not stated) | 101 to 103
C=CCc1c(O)ccc2c1CCCC2=O | 145 to 148
Cc1nc(-c2nc(=O)c3ccccc3s2)cs1 | 219 to 220
Cc1cc(C(N)=NO)ccc1[N+](=O)[O-] | 127 to 129
Cn1ccnc1S[Si](C)(C)C | 49 to 52
O=c1[nH]c2sc3ccc(Br)cc3c2[nH]c1=O | > 320

Structure (SMILES) | melting point [°C]
CCn1c(=O)ccc2cnc(Nc3ccc(-c4ccccc4)cc3)nc21 | 207 to 208
N#Cc1ccc(F)cc1-c1ccc(OCc2ccccc2)cc1 | 94 to 96
CCP1(=O)c2ccccc2CN1c1ccccc1 (configuration not stated) | 116 to 120
CCCCCc1c(C(C)C)nc(C(C)C)c(C(C)O)c1-c1ccc(F)cc1 (configuration not stated) | 83
N#CC(c1ccccc1)C1CCN(c2ccc([N+](=O)[O-])cc2)CC1 (configuration not stated) | 118
CN1Cc2nc[nH]c2C[C@@H]1C(=O)c1ccccc1 | 98
Cn1ncnc1COc1nn2c(-c3ccc(F)cc3)nncc2c1C(C)(C)C | 197
COc1cc(COc2nn(-c3ccccc3)cc2CC#N)ccc1OCc1nc(-c2ccco2)oc1C | 153 to 154
CCCCCCCCc1cnc(-c2ccc(C#N)cc2)nc1 | 66.1 to 66.5
N#Cc1cccc(C2=Nc3cc(O)c(-c4cc(F)ccc4F)cc3NC(=O)C2)c1 | > 250
CCCCCCCCCCCc1cccc(Oc2c(N)nc(N)nc2CC)c1 | 97 to 99
C=CCc1c(O)ccc2ccc(OCC(=O)OC)cc12 | 128 to 130
O=c1cc(-c2ccncc2)nc2n1CCC(C(F)(F)F)N2 (configuration not stated) | 302 to 304
O=C(Nc1nccs1)C(CC1CCCC1)c1ccc(-c2ccncc2)cc1 (configuration not stated) | 165 to 167
NC(=S)c1sccc1N | 98 to 99
[N-]=[N+]=Nc1cc(N)cc(I)c1 | 89 to 91
CC(C)c1ccc(S(=O)(=O)Nc2ccc(OC(F)(F)F)cc2I)cc1 | 72
O=C(NCc1ccc(Cl)cc1)c1cnc2c(F)cc(/C=C\CO)cc2c1O | 234 to 235
CCN(CC)CCOc1ccc(Nc2ncc3c(n2)N(C)C(=O)N(c2cccc(Br)c2)C3)cc1 | 150
CCSC1=C(c2ccc(O)cc2)C(=O)c2cc(O)ccc21 | 78 to 81
OCc1cc(N2CCCCC2)c(Br)cn1 | 118 to 119
CCn1cc(CN(C(=O)C2CCCc3ccc(OCc4ccccc4)cc32)c2ccc(C(C)C)cc2)cn1 (configuration not stated) | 100 to 101
CC1CC2CC(C)(CN2)C1(C)C(=O)C=CCO (configuration not stated) | 72 to 75
Nc1cc(-c2ncnc(C(F)F)c2Cl)c(F)cc1Cl | 106 to 108

Structure (SMILES) | melting point [°C]
Nc1nc2c(Cc3ccsc3)c(I)[nH]c2c(=O)[nH]1 | > 260
Clc1cccc(Nc2nc3nonc3nc2Nc2cccc(Cl)c2)c1 | 238
C[C@@H](NC(=O)c1csc(-c2ccccc2)n1)[C@](O)(Cn1cncn1)c1ccc(F)cc1F | 174 to 175
COc1cccc(-c2nc(NC(=O)Nc3ccccn3)cs2)c1 | 201 to 203
Oc1ccc2c(c1)CCc1c-2oc2cc(O)ccc12 | 219 to 220
COc1ccc2cc(-c3nn(C)c4cc(OC)ccc34)ccc2c1 | 166 to 168
CS(=O)(=O)c1ccc(-c2nn(Cc3ccc(F)cc3F)c(=O)cc2-c2ccc(Cl)cc2)cc1 | 174
O=C(O)c1cn(CC2CC2)c2ccccc12 | 157
O=C1Nc2ccccc2N(C(=O)CCCl)c2ccccc21 | 241 to 242
Nc1cc(-c2ccccc2)c(S(N)(=O)=O)cc1S(N)(=O)=O | 197 to 198
COC(=O)C1=CCN=C(c2ccccc2F)c2cc(Cl)ccc21 | 106 to 107
O=C(O)CCCc1cc2nc(Cl)ccc2n1S(=O)(=O)c1c(F)cccc1F | 192 to 195
CC(=O)Nc1cccc(-n2ccnc2C)c1 | 238 to 240
CCOC(=O)c1cccn2c(C=O)c(-c3ccccc3)nc12 | 139
Cc1cc(C(=O)Nc2cccc(C3CN4CCSC4=N3)c2)n(C)n1 (configuration not stated) | 163 to 164
Cc1ccc(CN2CCSC2=O)cc1 | 49 to 50
CCN1Cc2ccccc2P1(=O)c1ccccc1 (configuration not stated) | 94 to 95
Cc1cnc(CCCCn2cnc(NC(N)=NCC(F)(F)F)n2)nc1O | 235 to 237
O=C(Nc1ccc2ccc(Br)nc2n1)c1ccc(F)cc1 | 228
Cc1cccc(C(C)C)c1NC(=O)CCCCCBr | 66 to 67
O=C(O)c1cc2c(cn1)[nH]c1ccccc12 | 307 to 309
Fc1ccc(C(F)(F)C(F)(F)c2ccccc2)c(Br)c1 | 47 to 48
C=CCN(C=O)c1ccc([N+](=O)[O-])cc1C | 56

Other lines, results leading:

melting point [°C] | Structure (SMILES)
63 to 71 | CC(C)[C@H](NC(=O)OCc1ccccc1)C(=O)N[C@@H](C(C)C)[C@@H](O)c1c(-c2ccccc2)c1=O
112 to 113 | COC(=O)C(=O)Cc1ccc(SC)cc1
205 to 208 | CC(C)(C)OC(=O)NC(C)(C)c1ccc(C(=O)O)cc1
138 to 140 | CCOC(=O)C1=CNC2=C(C(=O)OCC)CCC(C)N2C1=O (configuration not stated)
198 to 200 | Cn1c(N2CC3CC2CN3C(=O)OC(C)(C)C)nc(-c2ccncn2)cc1=O (configuration not stated)
133 to 135 | CNC(=O)N1CCSC1c1ccccc1OCCN1CCN(c2ccccc2)CC1 (configuration not stated)
147 | O=C(O)C(Cc1ccccc1)C(=O)NOCc1ccccc1 (configuration not stated)
151 to 153 | CC(=O)SCC12CCC3(CC1=CCC1C2CCC2(C)C(C(C)=O)CCC12)OCCO3 (configuration not stated)
135 to 136 | COc1ccc(CN2C(=O)C(NC(=O)OCc3ccccc3)C2C2COC(=O)O2)cc1OC (configuration not stated)
153 to 154 | CC(=O)N1CCN(c2ccc(NS(C)(=O)=O)c(C)c2)CC1
91.2 to 92.2 | COc1ccc(CNC=C(C(C)=O)C(C)=O)cc1
162 to 164 | COc1c(C)c(N2CCN(c3ccc(OC(F)(F)F)cc3)CC2)c(C)c2c1OC(C)(C)C2
214 to 215 | CCc1nc2c(C)cc(C)nc2n1Cc1ccc(C2(C(=O)O)CCOCC2)s1
254 to 255 | CC(=O)c1ccc2c(c1)c1cc(-c3ccc(Cl)cc3Cl)c(=O)n(C)c1n2C
289 | COc1ccc(-c2[nH]nc3c2C(=O)c2c(NC(=O)C4CC4)cccc2-3)cc1
37 to 40 | CCOC(=O)c1c(C(F)(F)F)nc(C(F)F)c(C(=O)OC)c1N(C)C1CC1

melting point [°C] | Structure (SMILES)
258 to 260 | CC(=NNc1ccc(C2=NNC(=O)CC2)cc1)c1ccnnc1
230 | CC(=O)OC(c1nc2c(C(F)(F)F)cccc2c(O)c1C(=O)Nc1ccccn1)C(C)C (configuration not stated)
98 | O=C(Nc1ccccc1)O[C@@H]1CN=C(c2cccs2)O[C@H]1c1ccccc1 (racemic)
144 to 146 | O=C(NC(=O)N1C(=O)Cc2ccccc21)C1CCCCC1
205 | Cc1c(C(=O)O)cccc1C(=O)c1ccc(Cl)cc1
291 to 293 | CC(=O)OC1(C(C)=O)C(C)CC2C3CC(C)C4=CC(=O)C=CC4(C)C3(F)C(O)CC21C (configuration not stated)
189 to 191 | COC(=O)c1c(Cc2ccc(C(=O)CBr)cc2)c(=O)c2ccc(C)nc2n1-c1ccccc1
213 to 214 | CC(C)(C)OC(=O)N1CCC(Oc2ccc(C3=NNC(=O)CC3c3ccccn3)cc2)CC1 (configuration not stated)
253 to 255 | CC(=O)N1N=C(c2ccc([N+](=O)[O-])c(C)c2)c2cc3c(cc2CC1(C)C#N)OCO3 (configuration not stated)
77 to 79 | CCCCCC(CC(=O)Nc1cc(C(N)=O)ccc1C(C)(C)C)c1ccc(OCCCNS(C)(=O)=O)cc1OC (configuration not stated)
159 to 161 | COC(=O)c1nc(-c2sccc2[N+](=O)[O-])n(C)c(=O)c1OC(=O)C(C)(C)C
132 to 135 | Cc1ccccc1CC(C(=O)O)C(=O)O
91 to 93 | C#CCON=C(C(C)=NOCc1ccccc1C(=COC)C(=O)OC)c1ccc(F)cc1
109 to 127 | COc1cc2c(cc1Nc1ncc(Cl)c(N[C@H]3[C@@H](C(N)=O)[C@@H]4C=C[C@H]3C4)n1)CCN(CC(=O)N(C)C)CC2
104 to 105 | CCCCOc1ccc(Cl)cc1C(=O)NCCc1ccc(CC(=O)O)cc1
